# Measurements: patent US20100267561A1, “HERBICIDAL PYRIDAZINONE DERIVATIVES” (priority 2007, published 2010)
# Key:
# [1] = system: Russian thistle (Salsola kali); assay: Test E pre-/postemergence plant response; format: in vivo; settings: 31 g ai/ha, Preemergence, scale 0 to 100
# Outline: (§1)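 In this greenhouse assay, sown seeds received preemergence treatment and young plants of 2 to 18 cm (1- to 4-leaf stage) received postemergence treatment, both with compound in a non-phytotoxic solvent and surfactant vehicle. Effects were rated visually 14 to 21 days later on a 0–100 control scale.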
# [2] = system: Canada horseweed (Conyza canadensis); assay: Test E pre-/postemergence plant response; format: in vivo; settings: Postemergence, scale 0 to 100
# Outline: as §1
# [3] = system: Virginia (V.) dayflower (Commelina virginica); assay: Test E pre-/postemergence plant response; format: in vivo; settings: scale 0 to 100
# Outline: as §1
# kochia (Kochia scoparia) = assay: Test E pre-/postemergence plant response; format: in vivo; settings: scale 0 to 100
# Outline: as §1
# [4] = system: common sowthistle (Sonchus oleraceous); assay: Test E pre-/postemergence plant response; format: in vivo; settings: scale 0 to 100
# Outline: as §1
# [5] = system: prickly sida (Sida spinosa); assay: Test E pre-/postemergence plant response; format: in vivo; settings: scale 0 to 100
# Outline: as §1
# canola (Brassica rapa) = assay: Test C pre-/postemergence plant response; format: in vivo
# Outline: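 Greenhouse-type test under controlled conditions: soil-surface preemergence treatment of sown seed and foliar postemergence treatment of seedlings 2–18 cm tall. Each compound was in non-phytotoxic solvent with surfactant. Response was rated by eye after 15–25 days, 0 to 100, against controls.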
compound,measurement,setting,value
"CCc1cc(-c2ccc(C(F)(F)F)cc2)nn1-c1c(O)cnn(C)c1=O [Compound 11, 4-[5-ethyl-3-[4-(trifluoromethyl)phenyl]-1H-pyrazol-1-yl]-5-hydroxy-2-methyl-3(2H)-pyridazinone]","Plant response rating, Thistle, Russian",[1],0
same,"Plant response rating, Horseweed",[2]; 4 g ai/ha,0
same,"Plant response rating, Horseweed",[2]; 8 g ai/ha,0
same,"Plant response rating, Horseweed",[2]; 16 g ai/ha,0
same,"Plant response rating, Horseweed",[2]; 31 g ai/ha,0
same,"Plant response rating, Dayflower, V.","[3]; 4 g ai/ha, Postemergence",0
same,"Plant response rating, Dayflower, V.","[3]; 8 g ai/ha, Preemergence",0
same,"Plant response rating, Dayflower, V.","[3]; 16 g ai/ha, Preemergence",0
same,"Plant response rating, Dayflower, V.","[3]; 31 g ai/ha, Preemergence",0
same,"Plant response rating, Dayflower, V.","[3]; Postemergence, 8 g ai/ha",0
same,"Plant response rating, Dayflower, V.","[3]; Postemergence, 16 g ai/ha",0
same,"Plant response rating, Dayflower, V.","[3]; Postemergence, 31 g ai/ha",0
same,"Plant response rating, Dayflower, V.","[3]; Preemergence, 4 g ai/ha",0
same,"Plant response rating, Kochia","kochia (Kochia scoparia); 4 g ai/ha, Postemergence",0
same,"Plant response rating, Kochia","kochia (Kochia scoparia); 16 g ai/ha, Preemergence",0
same,"Plant response rating, Kochia","kochia (Kochia scoparia); 31 g ai/ha, Preemergence",0
same,"Plant response rating, Kochia","kochia (Kochia scoparia); Postemergence, 8 g ai/ha",0
same,"Plant response rating, Kochia","kochia (Kochia scoparia); Postemergence, 16 g ai/ha",0
same,"Plant response rating, Kochia","kochia (Kochia scoparia); Postemergence, 31 g ai/ha",0
same,"Plant response rating, Kochia","kochia (Kochia scoparia); Preemergence, 4 g ai/ha",0
same,"Plant response rating, Sowthistle","[4]; 4 g ai/ha, Postemergence",0
same,"Plant response rating, Sowthistle","[4]; 16 g ai/ha, Preemergence",0
same,"Plant response rating, Sowthistle","[4]; Postemergence, 8 g ai/ha",0
same,"Plant response rating, Sowthistle","[4]; Postemergence, 16 g ai/ha",0
same,"Plant response rating, Sowthistle","[4]; Postemergence, 31 g ai/ha",0
same,"Plant response rating, Prickly Sida","[5]; 4 g ai/ha, Postemergence",0
same,"Plant response rating, Prickly Sida","[5]; 16 g ai/ha, Preemergence",0
same,"Plant response rating, Prickly Sida","[5]; 31 g ai/ha, Preemergence",0
same,"Plant response rating, Prickly Sida","[5]; Postemergence, 8 g ai/ha",0
same,"Plant response rating, Prickly Sida","[5]; Postemergence, 16 g ai/ha",0
same,"Plant response rating, Prickly Sida","[5]; Postemergence, 31 g ai/ha",0
same,"Plant response rating, Prickly Sida","[5]; Preemergence, 4 g ai/ha",0
same,melting point,,202 to 204 °C
same,"Plant response rating, Canola","canola (Brassica rapa); Postemergence, 8 g ai/ha, scale 0 to 100, 0 no effect, 100 complete control",0
same,"Plant response rating, Canola","canola (Brassica rapa); Postemergence, 16 g ai/ha, scale 0 to 100, 0 no effect, 100 complete control",0
same,"Plant response rating, Canola","canola (Brassica rapa); Postemergence, 31 g ai/ha, scale 0 to 100, 0 no effect, 100 complete control",0
same,"Plant response rating, Canola","canola (Brassica rapa); Postemergence, 62 g ai/ha, scale 0 to 100, 0 no effect, 100 complete control",0
same,"Plant response rating, Canola","canola (Brassica rapa); Preemergence, 8 g ai/ha, scale 0 to 100 (0 no effect, 100 complete control)",0
same,"Plant response rating, Canola","canola (Brassica rapa); Preemergence, 16 g ai/ha, scale 0 to 100 (0 no effect, 100 complete control)",0
same,"Plant response rating, Canola","canola (Brassica rapa); Preemergence, 31 g ai/ha, scale 0 to 100 (0 no effect, 100 complete control)",0
same,"Plant response rating, Canola","canola (Brassica rapa); Preemergence, 62 g ai/ha, scale 0 to 100, 0 no effect, 100 complete control",0
